Reference: the CheMixHub drug solubility set

Assay: xn = mol fraction of the nth substance listed, in the solute-free solvent

CC(=O)OC(c1ccccc1)C(Cl)(Cl)Cl (centres undefined) + CC(C)O + O
solubility (g/100 g solution)
Conditions	288.15 K	293.15 K	298.15 K	303.15 K	308.15 K	313.15 K	318.15 K	323.15 K	328.15 K
x2 = 0.3	0.121	0.305	0.695	1.28	1.93	2.84	3.53	4.2	4.91
x2 = 0.4	0.68	1.07	1.66	2.53	3.38	4.59	5.99	7.89	10.2
x2 = 0.5	1.44	1.92	2.68	3.57	4.9	6.25	8.62	11.3	15.3
x2 = 0.6	2.16	2.57	3.54	4.68	6.23	7.88	10.9	14.7	19.1
x2 = 0.7	2.5	3.03	4.15	5.52	7.14	9.44	12.2	16.8	21.4
x2 = 0.8	2.69	3.35	4.57	6.3	7.95	10.4	13.8	18.5	23.5
x2 = 0.9	2.86	3.67	5.1	6.71	8.39	10.9	14.4	19.4	25.3

Nc1cncc(Cl)n1 + CC(O)CO + O
solubility (g/100 g solution)
Conditions	278.15 K	283.15 K	288.15 K	293.15 K	298.15 K	303.15 K	308.15 K	313.15 K	318.15 K	323.15 K
x2 = 0.02564	–	–	–	–	–	–	–	–	–	0.0333
x2 = 0.0559	–	–	–	–	–	–	–	–	–	0.0456
x2 = 0.09214	0.064	0.0784	0.093	0.112	0.133	0.158	0.185	0.216	0.25	0.292
x2 = 0.1364	0.0887	0.109	0.129	0.156	0.184	0.218	0.255	0.297	0.343	0.401
x2 = 0.1915	0.112	0.137	0.166	0.2	0.239	0.281	0.33	0.384	0.445	0.521
x2 = 0.2621	0.135	0.168	0.206	0.251	0.298	0.351	0.413	0.48	0.555	0.649
x2 = 0.3559	0.156	0.196	0.237	0.29	0.345	0.406	0.479	0.557	0.644	0.757
x2 = 0.4865	0.159	0.205	0.253	0.308	0.371	0.435	0.512	0.599	0.694	0.815
x2 = 0.6806	0.159	0.201	0.247	0.307	0.365	0.431	0.508	0.593	0.688	0.814

O=C1CCc2ccc(OCCCCN3CCN(c4cccc(Cl)c4Cl)CC3)cc2N1 + CCC(C)=O + CC(C)=O
solubility (g/100 g solution)
Conditions	278.15 K	283.15 K	288.15 K	293.15 K	298.15 K	303.15 K	308.15 K	313.15 K	318.15 K
x2 = 0.1	0.779	0.97	1.13	1.44	1.75	2.16	2.61	3.34	4.18
x2 = 0.2	0.882	1.07	1.25	1.61	1.94	2.32	2.83	3.58	4.41
x2 = 0.3	0.948	1.16	1.34	1.71	2.09	2.46	3.02	3.74	4.62
x2 = 0.4	1.01	1.22	1.43	1.78	2.19	2.59	3.21	3.88	4.8
x2 = 0.5	1.05	1.28	1.5	1.86	2.28	2.71	3.34	4.01	4.96
x2 = 0.6	1.09	1.34	1.57	1.93	2.36	2.82	3.46	4.13	5.1
x2 = 0.7	1.12	1.38	1.63	1.99	2.43	2.91	3.54	4.23	5.21
x2 = 0.8	1.15	1.43	1.68	2.06	2.49	2.99	3.62	4.3	5.27
x2 = 0.9	1.17	1.47	1.72	2.12	2.54	3.06	3.68	4.35	5.31

COC1=CC(=O)CC(C)C12Oc1c(Cl)c(OC)cc(OC)c1C2=O (centres undefined) + CCC(C)=O + CC(C)O
solubility (g/100 g solution)
Conditions	283.15 K	288.15 K	293.15 K	298.15 K	303.15 K	308.15 K	313.15 K	318.15 K	323.15 K
x2 = 0.1	0.162	0.217	0.254	0.338	0.391	0.463	0.543	0.669	0.836
x2 = 0.2	0.326	0.374	0.44	0.557	0.606	0.77	0.892	1.05	1.26
x2 = 0.3	0.497	0.571	0.668	0.821	0.894	1.11	1.28	1.52	1.79
x2 = 0.4	0.684	0.779	0.9	1.11	1.23	1.44	1.68	1.93	2.25
x2 = 0.5	0.96	1.07	1.21	1.4	1.59	1.85	2.11	2.4	2.79
x2 = 0.6	1.22	1.37	1.51	1.75	1.98	2.26	2.58	2.92	3.41
x2 = 0.7	1.5	1.66	1.8	2.07	2.31	2.62	2.97	3.34	3.79
x2 = 0.8	1.7	1.87	2.04	2.37	2.6	2.94	3.29	3.75	4.16
x2 = 0.9	1.84	2.02	2.22	2.58	2.81	3.18	3.52	4	4.41

O=C1CCc2ccc(OCCCCN3CCN(c4cccc(Cl)c4Cl)CC3)cc2N1 + CCC(C)=O + CCCO
solubility (g/100 g solution)
Conditions	278.15 K	283.15 K	288.15 K	293.15 K	298.15 K	303.15 K	308.15 K	313.15 K	318.15 K
x2 = 0.1	0.703	0.851	1.04	1.22	1.46	1.7	2.04	2.61	3.38
x2 = 0.2	1.03	1.2	1.44	1.69	1.98	2.38	2.87	3.56	4.45
x2 = 0.3	1.32	1.52	1.88	2.29	2.68	3.15	3.67	4.46	5.5
x2 = 0.4	1.6	1.86	2.24	2.74	3.21	3.77	4.34	5.18	6.36
x2 = 0.5	1.86	2.05	2.48	3.03	3.59	4.13	4.81	5.82	7.2
x2 = 0.6	2.04	2.25	2.67	3.18	3.75	4.3	5.16	6.36	7.89
x2 = 0.7	1.98	2.21	2.62	3.12	3.68	4.22	5.04	6.23	7.71
x2 = 0.8	1.84	2.09	2.47	2.96	3.48	4.03	4.72	5.83	7.15
x2 = 0.9	1.68	1.94	2.27	2.69	3.12	3.61	4.21	5.13	6.36

O=C1CCc2ccc(OCCCCN3CCN(c4cccc(Cl)c4Cl)CC3)cc2N1 + CCC(C)=O + CCOC(C)=O
solubility (g/100 g solution)
Conditions	278.15 K	283.15 K	288.15 K	293.15 K	298.15 K	303.15 K	308.15 K	313.15 K	318.15 K
x2 = 0.1	0.601	0.745	0.882	1.04	1.24	1.57	1.88	2.26	2.76
x2 = 0.2	0.641	0.794	0.953	1.12	1.37	1.74	2.08	2.45	2.98
x2 = 0.3	0.681	0.845	1.04	1.22	1.48	1.91	2.28	2.68	3.24
x2 = 0.4	0.73	0.907	1.14	1.32	1.61	2.06	2.48	2.92	3.53
x2 = 0.5	0.778	0.975	1.23	1.44	1.75	2.22	2.66	3.16	3.8
x2 = 0.6	0.825	1.05	1.32	1.57	1.89	2.39	2.86	3.4	4.12
x2 = 0.7	0.879	1.13	1.43	1.69	2.03	2.55	3.04	3.65	4.42
x2 = 0.8	0.948	1.22	1.53	1.83	2.18	2.72	3.25	3.87	4.75
x2 = 0.9	1.04	1.34	1.63	1.98	2.36	2.91	3.48	4.12	5.04

O=C(O)c1cc([N+](=O)[O-])ccc1O + CCCO + O
solubility (g/100 g solution)
Conditions	278.15 K	283.15 K	288.15 K	293.15 K	298.15 K	303.15 K	308.15 K	313.15 K	318.15 K	323.15 K
x2 = 0.03225	0.0803	0.104	0.134	0.171	0.216	0.26	0.316	0.38	0.458	0.542
x2 = 0.06974	0.189	0.227	0.294	0.366	0.45	0.559	0.678	0.817	1.01	1.24
x2 = 0.1139	0.45	0.55	0.689	0.87	1.08	1.3	1.55	1.79	2.07	2.41
x2 = 0.1666	0.839	1.02	1.3	1.63	2.02	2.42	2.82	3.28	3.77	4.3
x2 = 0.2307	1.52	1.91	2.38	2.94	3.59	4.22	4.85	5.61	6.41	7.29
x2 = 0.3103	2.34	2.82	3.45	4.11	4.94	5.73	6.68	7.75	8.82	10.2
x2 = 0.4117	3.55	4.17	4.92	5.66	6.64	7.67	8.85	9.98	11.2	12.6
x2 = 0.5454	4.75	5.34	6.09	7.02	8.12	9.33	10.6	12	13.4	15.1
x2 = 0.7297	5.59	6.57	7.78	8.73	9.96	11.3	12.4	13.8	15.2	16.8
